According to ChEMBL document CHEMBL1148293 (J Med Chem, 2004):

Experiments:
[1] = target: Mu-type opioid receptor (Cavia porcellus, UniProt P97266); assay: Binding affinity against opioid receptor mu 1 using [3H]DAMGO as radioligand in guinea pig brain membranes.; format: cell membranes
[2] = target: Kappa-type opioid receptor (Cavia porcellus, UniProt P41144); assay: Binding affinity against opioid receptor kappa 1 using [3H]-U-69,593 as radioligand in guinea pig brain membranes.; format: cell membranes
[3] = system: Opioid receptors; mu & delta; assay: Selectivity ratio expressed as Ki of delta opioid receptor to that of mu opioid receptor.; format: protein assay; details: Cavia porcellus
[4] = target: Opioid receptors; delta & kappa (UniProt P41145+P41143); assay: Selectivity ratio expressed as Ki of delta opioid receptor to that of kappa opioid receptor.; format: protein assay; details: Cavia porcellus
Opioid receptors; delta & kappa, sequence (P41143 whole entry, looked up): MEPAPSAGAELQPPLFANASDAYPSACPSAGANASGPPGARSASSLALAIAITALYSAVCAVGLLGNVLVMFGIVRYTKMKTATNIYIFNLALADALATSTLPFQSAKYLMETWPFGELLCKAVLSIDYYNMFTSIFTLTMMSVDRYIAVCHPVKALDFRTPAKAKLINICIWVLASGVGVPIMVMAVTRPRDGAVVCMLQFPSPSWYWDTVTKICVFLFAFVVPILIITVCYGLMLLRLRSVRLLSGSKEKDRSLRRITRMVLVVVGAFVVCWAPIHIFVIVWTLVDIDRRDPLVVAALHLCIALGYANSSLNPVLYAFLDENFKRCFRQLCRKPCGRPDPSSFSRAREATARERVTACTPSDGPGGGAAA
Opioid receptors; delta & kappa, sequence (P41145 whole entry, looked up): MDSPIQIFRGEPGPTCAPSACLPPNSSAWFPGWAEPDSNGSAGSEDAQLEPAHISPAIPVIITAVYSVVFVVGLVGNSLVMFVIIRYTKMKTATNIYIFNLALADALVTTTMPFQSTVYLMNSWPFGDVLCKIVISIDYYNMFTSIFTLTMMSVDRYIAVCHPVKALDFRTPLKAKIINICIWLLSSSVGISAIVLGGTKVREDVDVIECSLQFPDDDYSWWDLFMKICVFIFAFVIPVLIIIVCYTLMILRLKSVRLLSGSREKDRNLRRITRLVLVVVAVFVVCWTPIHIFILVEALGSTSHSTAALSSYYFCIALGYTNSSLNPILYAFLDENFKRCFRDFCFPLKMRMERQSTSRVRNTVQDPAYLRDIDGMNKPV

Kappa-type opioid receptor, sequence (P41144 whole entry): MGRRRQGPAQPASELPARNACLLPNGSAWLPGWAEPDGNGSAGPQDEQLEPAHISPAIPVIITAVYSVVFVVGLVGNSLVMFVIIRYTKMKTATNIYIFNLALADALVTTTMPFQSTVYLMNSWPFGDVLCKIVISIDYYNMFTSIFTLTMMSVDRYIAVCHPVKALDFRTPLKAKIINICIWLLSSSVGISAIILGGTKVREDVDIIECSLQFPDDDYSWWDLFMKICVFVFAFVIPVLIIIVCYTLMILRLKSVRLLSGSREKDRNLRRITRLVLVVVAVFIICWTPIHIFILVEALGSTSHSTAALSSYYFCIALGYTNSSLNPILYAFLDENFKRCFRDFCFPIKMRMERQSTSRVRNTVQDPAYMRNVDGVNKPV
Mu-type opioid receptor, sequence (P97266 whole entry): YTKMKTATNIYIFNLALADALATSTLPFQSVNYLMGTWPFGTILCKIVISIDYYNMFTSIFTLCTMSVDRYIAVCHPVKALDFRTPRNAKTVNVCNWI

SMILES | Ki [1] | Ki [2] | Selectivity [3] | Selectivity [4]
NCc1ccc2c(c1)[C@@]13CCCC[C@H]1[C@@H](C2)N(CC1CCC1)CC3 | 8.5 nM | 8.6 nM | 48 | 48
COc1ccc2c(c1)[C@@]13CCCC[C@H]1[C@H](NCC3)C2=O | 110 nM | 390 nM | 0.14 | 0.04
Nc1ccc2c(c1)[C@@]13CCCC[C@H]1[C@@H](C2=O)N(CC1CCC1)CC3 | 23 nM | 4.7 nM | 26 | 130
CC(C)=CCN1CC[C@]23CCCC[C@H]2[C@H]1C(=O)c1ccc(O)cc13 | 19 nM | 7.4 nM | 58 | 150
O=C(O)c1ccc2c(c1)[C@@]13CCCC[C@H]1[C@@H](C2=O)N(CC1CCC1)CC3 | 28 nM | 59 nM | 29 | 14
O=C1c2ccc(O)cc2[C@@]23CCCC[C@H]2[C@@H]1N(CC1CC1)CC3 | 240 nM | 24 nM | 0.6 | 6
NC(=O)c1ccc2c(c1)[C@@]13CCCC[C@H]1[C@@H](C2)N(CC1CCC1)CC3 |  | 0.087 nM |  | 
O=C(Nc1ccc2c(c1)[C@@]13CCCC[C@H]1[C@@H](C2=O)N(CC1CCC1)CC3)c1ccccc1 | 4.4 nM | 7.7 nM | 86 | 49
CN1CC[C@]23CCCC[C@H]2[C@H]1Cc1ccc(N)cc13 | 7.9 nM | 110 nM | 190 | 14
CN1CC[C@]23CCCC[C@H]2[C@H]1Cc1ccc(-c2nnn[nH]2)cc13 | 380 nM | 380 nM |  | 
O=C1c2ccc(O)cc2[C@@]23CCCC[C@H]2[C@@H]1N(CCc1ccccc1)CC3 | 0.63 nM | 7.7 nM | 15 | 1.3
CN1CC[C@]23CCCC[C@H]2[C@H]1Cc1ccc(C(N)=O)cc13 | 0.073 nM | 3.9 nM | 180 | 3.3
NC(=O)c1ccc2c(c1)[C@@]13CCCC[C@H]1[C@@H](C2)N(CC1CC1)CC3 | 0.059 nM | 0.18 nM | 17 | 5.6
O=C1c2ccc(-c3nn[nH]n3)cc2[C@@]23CCCC[C@H]2[C@@H]1N(CC1CCC1)CC3 |  |  | 7.8 | 5
N#Cc1ccc2c(c1)[C@@]13CCCC[C@H]1[C@@H](C2)N(CC1CCC1)CC3 | 37 nM | 6 nM | 51 | 320
Nc1ccc2c(c1)[C@@]13CCCC[C@H]1[C@@H](C2)N(CC1CC1)CC3 | 1.3 nM | 0.18 nM | 120 | 830
O=C1c2ccc(OCC3CCC3)cc2[C@@]23CCCC[C@H]2[C@@H]1N(CC1CCC1)CC3 | 800 nM | 290 nM | > 12 | 35
O=C1c2ccc(O)cc2[C@@]23CCCC[C@H]2[C@@H]1N(CC1CCC1)CC3 | 3.3 nM | 0.48 nM | 79 | 540
CN1CC[C@]23CCCC[C@H]2[C@H]1Cc1ccc(C#N)cc13 | 20 nM | 200 nM | > 500 | > 5

SMILES | Ki [1] | Ki [2] | Selectivity [3] | Selectivity [4]
Oc1ccc2c(c1)[C@@]13CCCC[C@H]1[C@@H](C2)N(CC1CCC1)CC3 [BUTORPHAN] |  | 0.079 nM | 26 | 75
C#CCOc1ccc2c(c1)[C@@]13CCCC[C@H]1[C@@H](C2=O)N(CC#C)CC3 | 710 nM | 500 nM | > 14 | > 20
O=C1c2ccc(O)cc2[C@@]23CCCC[C@H]2[C@@H]1N(C[C@@H]1CCCO1)CC3 | 0.38 nM | 0.18 nM | 2.6 | 5.6
O=C1c2ccc(-c3nnn[nH]3)cc2[C@@]23CCCC[C@H]2[C@@H]1N(CC1CCC1)CC3 | 230 nM | 360 nM |  | 
CN1CC[C@]23CCCC[C@H]2[C@H]1Cc1ccc(-c2nn[nH]n2)cc13 |  |  | > 26 | > 26
O=C1c2ccc(O)cc2[C@@]23CCCC[C@H]2[C@@H]1N(CCCF)CC3 | 20 nM | 2.5 nM |  | 
CN1CC[C@]23CCCC[C@H]2[C@H]1C(=O)c1ccc(O)cc13 | 21 nM | 47 nM | 57 | 26
C#CCN1CC[C@]23CCCC[C@H]2[C@H]1C(=O)c1ccc(O)cc13 | 190 nM | 60 nM | 12 | 38
Nc1ccc2c(c1)[C@@]13CCCC[C@H]1[C@@H](C2)N(CC1CCC1)CC3 | 3.7 nM | 1.8 nM | 49 | 100
c1cc2c(cc1-c1nnn[nH]1)[C@@]13CCCC[C@H]1[C@@H](C2)N(CC1CCC1)CC3 | 1100 nM | 850 nM |  | 
CN1CC[C@]23CCCC[C@H]2[C@H]1Cc1ccc(CN)cc13 | 66 nM | 120 nM | > 38 | > 21
O=C1c2ccc(O)cc2[C@@]23CCCC[C@H]2[C@@H]1N(CCF)CC3 | 560 nM | 250 nM | > 18 | > 40
N#Cc1ccc2c(c1)[C@@]13CCCC[C@H]1[C@@H](C2=O)N(CC1CCC1)CC3 |  | 400 nM |  | 
c1cc2c(cc1-c1nn[nH]n1)[C@@]13CCCC[C@H]1[C@@H](C2)N(CC1CCC1)CC3 |  |  | > 9 | > 12
NC(=O)c1ccc2c(c1)[C@@]13CCCC[C@H]1[C@@H](C2=O)N(CC1CCC1)CC3 | 2.5 nM | 2.7 nM | 20 | 19
O=C1c2ccc(O)cc2[C@@]23CCCC[C@H]2[C@@H]1N(Cc1ccc2ccccc2c1)CC3 | 2200 nM | 780 nM | > 4.5 | > 13
O=C1c2ccc(O)cc2[C@@]23CCCC[C@H]2[C@@H]1NCC3 | 20 nM | 25 nM | > 500 | > 400
CN1CC[C@]23CCCC[C@H]2[C@H]1Cc1ccc(O)cc13 |  |  | 20 | 1.8
